In US20040241166A1, “Use of inhibitors of ikk-beta and method for discovery of said inhibitors” (priority 2001, published 2004):

Experiments:
IKK complex = assay: Immunoprecipitation and kinase assay of IKK complex from stimulated HUVEC (GST-IκB-α phosphorylation); type: cell-based, human
Protocol: Cells were incubated as indicated and cytosol extracts were made. Immunoprecipitation (IP) with antikinase antibodies as indicated was followed by a kinase assay using the substrate GST.IκB-α in the presence of ^32P-ATP. A time-dependent phosphorylation of the substrate is shown in each case after stimulation of HUVEC with blood platelets (PLT; 2×10^8/ml) (FIG. 6A), IL-1β (100 pg/ml) (FIG. 6B) or TNF (1.67 ng/ml) (FIG. 6C). A representative experiment is shown for each case (n=3). FIG. 6D: the kinase assays were scanned and analysed densitometrically.
Cytosol extracts were subjected to immunoprecipitation (IP) (7) in TNT buffer containing 1 mM dithiothreitol, 0.5 μM 4-(2-aminoethyl)-benzenesulfonyl fluoride (AEBSF) and 0.75 μg/ml each of leupeptin, antipain, aprotinin, pepstatin A and chymostatin (Sigma). […] After washing three times with TNT and kinase buffer each time (20 mM HEPES, pH 8.0; 10 mM MgCl2, 100 μM Na3VO4; 20 mM β-glycerophosphate; 50 mM NaCl; 2 mM dithiothreitol; 0.5 μM AEBSF; 0.75 μg/ml each of leupeptin, antipain, aprotinin, pepstatin A, chymostatin), the precipitated proteins were analysed by a kinase assay. […] Proteins were analysed with PAGE and visualised by means of autoradiography. […]

IκB-α and IκB-ε = assay: Western blot of IκB-α/IκB-ε proteolysis in stimulated HUVEC; type: cell-based, human
Protocol: FIG. 5A: nuclear extracts from HUVEC stimulated with blood platelets (PLT; 2×10^8/ml) were examined by EMSA for NF-κB or Sp-1 binding, which is shown in brackets. FIG. 5B: cytosol extracts from cells stimulated with blood platelets were analysed by means of western blots. The proteins IκB-α, IκB-ε, IKK-α and IKK-β are indicated by arrow heads. α-Actin was used as a loading control. FIG. 5C: cytosol extracts from cells stimulated with IL-β (100 pg/ml) were examined by means of western blots. FIG. 5D: cells were incubated with TNF (1.67 ng/ml) and cytosol extracts were examined by means of western blots. The top arrow indicates the phosphorylated forms of IκB-α or IκB-ε. A representative blot is shown for all cases (n=3).
Cytosol extracts were isolated, and electrophoresis and blotting were carried out as described in the prior art (6, 7). After transfer, the membranes were incubated with antibodies to IκB-α (Santa Cruz Biotechnology, Heidelberg), IκB-ε (Prof. N. Rice, NIH, Frederick, Md.), IKK-α, IKK-β (Santa Cruz Biotechnology) or α-actin (Sigma). The proteins were visualised on X-ray film using a western blot chemiluminescence reagent (NEN Life Science Products). Protein sizes were confirmed by means of molecular weight standards (Amersham Pharmacia Biotech, Braunschweig, Bio-Rad, Munich). […]

IL-1β: cytokine used as stimulus of HUVEC, 100 pg/ml
time for which IKK activation is maintained (IKK complex): at least 90 minutes | time of IKK activation peak (IKK complex): 45 min | beginning of IκB-α degradation after incubation (IκB-α and IκB-ε): 15 min | time of significant IκB-ε proteolysis (IκB-α and IκB-ε): 60 min
